Source: patent US20150290200A1, “INTRACELLULAR KINASE INHIBITORS” (Pharmacyclics Inc., priority 2006, published 2015)

Columns and labels:
ITK kinase domain = molecular target: T1, ITK kinase domain (Homo sapiens, UniProt Q08881); assay: In vitro kinase assay (HITHUNTER enzyme fragment complementation), ITK; assay type: biochemical; settings: Table 8; wild type ITK kinase domain; read-out: IC50 wild-type ITK
T1 construct: N-terminally His-tagged ITK kinase domain (amino acids 352-617); His (N); made in house
T1 sequence (Q08881 352-617): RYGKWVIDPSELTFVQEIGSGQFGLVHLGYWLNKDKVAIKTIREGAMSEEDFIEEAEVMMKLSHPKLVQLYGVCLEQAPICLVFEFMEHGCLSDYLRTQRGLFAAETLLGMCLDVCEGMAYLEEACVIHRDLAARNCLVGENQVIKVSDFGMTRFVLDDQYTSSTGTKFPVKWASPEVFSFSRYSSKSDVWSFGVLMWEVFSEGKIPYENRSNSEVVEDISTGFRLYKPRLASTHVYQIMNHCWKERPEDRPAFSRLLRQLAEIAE
Experimental: Compounds were screened using the HITHUNTER™ enzyme fragment complementation method (Discoverx). Briefly, a recombinantly produced, N-terminally His-tagged ITK kinase domain (amino acids 352-617) was incubated with various concentrations of individual compounds. ATP and substrate were added, and the kinase reaction was allowed to proceed for 2-16 hours. Commercially available detection reagents were added and allowed to react for 2-4 hours. The reaction was evaluated by luminescence. Initial results were confirmed using full-length recombinant ITK protein.
(§1) In order to confirm the mechanism by which compounds depicted herein interact with the kinase domain of Tec and EGFR kinases, we created a point mutant of the ITK kinase domain, whereby the key amino acid, namely C442 was mutated to alanine. The protein was expressed in a commercial baculovirus expression system using the manufacturer's general protocol (Invitrogen, pBlueBac). Protein was expressed and purified using standard techniques. […] While the activity of WT-ITK was inhibited by compounds depicted in this application, the same compounds had no activity towards the C442A mutant kinase domain.

C442A-ITK kinase domain = molecular target: T2, C442A-ITK kinase domain (Homo sapiens, UniProt Q08881, C442A); assay: In vitro kinase assay, C442A point mutant of ITK kinase domain; assay type: biochemical; settings: Table 8
T2 construct: we created a point mutant of the ITK kinase domain; made in house; host or cells: baculovirus expression system (Invitrogen, pBlueBac)
T2 sequence (Q08881 363-615 C442A limits assumed): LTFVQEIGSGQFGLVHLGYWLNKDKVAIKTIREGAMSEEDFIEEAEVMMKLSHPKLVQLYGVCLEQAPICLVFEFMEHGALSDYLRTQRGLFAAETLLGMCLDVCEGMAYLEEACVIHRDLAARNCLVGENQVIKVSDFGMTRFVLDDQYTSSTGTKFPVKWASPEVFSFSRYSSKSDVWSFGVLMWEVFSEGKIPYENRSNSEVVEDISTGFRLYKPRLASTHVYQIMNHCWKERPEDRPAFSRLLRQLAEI
Excerpt: as §1

In the case of `NC(=O)c1ccc2cc(C(=O)CCN3CCOCC3)ccc2c1` [drawing 259], the IC50 (ITK kinase domain) is reported as 11.1 nM and the IC50 (C442A-ITK kinase domain) is reported as over 10000 nM.
